Measured values: US9896522B2, “Solid phase fluorescence labeling reagents and uses thereof” (The Texas A&M University System, priority 2010, dated 2018)

Columns and labels:
[1] = buffer, pH 2; cited from earlier work
[2] = UV absorbance spectra and molar absorbance; format: physicochemical
Experimental: UV absorbance spectra were recorded using a Beckman 168 photodiode detector during the HILIC separations. The eluent compositions at the time of detection were 26 mM NH4HCO2 74% ACN/water for APTS, 24 mM NH4HCO2 76% ACN/water for trisulfonamide 22 and 10 mM MOPS with 5 mM NaOH in 76% ACN/water for 33. Fluorescence spectra at different pH values were recorded on a Shimadzu RF-5301PC spectrofluorometer. The buffers used are tabulated below: UV absorbance and fluorescence spectra for the quantum yield determinations were acquired using a Varian 100 Bio UV-Vis spectrophotometer and a Varian Cary Eclipse fluorescence spectrometer, respectively. The samples were dissolved in a pH 9 0.1M aqueous sodium bicarbonate buffer.

[3] = fluorescence emission spectra at different pH values; format: physicochemical; conditions: fluorescence emission spectrum
Experimental: It was also developed to have pH-independent fluorescence properties which are important for CE applications. […] The molar absorbance and relative quantum yield values were also determined using Rhodamine 6G as a standard. UV absorbance spectra were recorded using a Beckman 168 photodiode detector during the HILIC separations. The eluent compositions at the time of detection were 26 mM NH4HCO2 74% ACN/water for APTS, 24 mM NH4HCO2 76% ACN/water for trisulfonamide 22 and 10 mM MOPS with 5 mM NaOH in 76% ACN/water for 33. Fluorescence spectra at different pH values were recorded on a Shimadzu RF-5301PC spectrofluorometer.

In the case of `CCCCCCCCCCCC1(C)OCC(COCCCS(=O)(=O)[O-])O1.[Na+]` (stereo not shown) [ALS], the half life [1] is listed as 8 min.

In the case of `Nc1cc(S(=O)(=O)O)c2ccc3c(S(=O)(=O)O)cc(S(=O)(=O)O)c4ccc1c2c43` [APTS, 8-Aminopyrene-1,3,6-trisulfonic acid, reference compound], the “share of the maximum absorbance that can be used at 488 nm” value ([2]; excitation at 488 nm) is reported as “about 4%”.

With `CN(CCS(=O)(=O)O)S(=O)(=O)c1cc(N)c2ccc3c(S(=O)(=O)N(C)CCS(=O)(=O)O)cc(S(=O)(=O)N(C)CCS(=O)(=O)O)c4ccc1c2c34` [compound 22] the “shift of λmax ex towards longer wavelength” value ([2]; relative to APTS) was 44 nm and the λmax em [3] was 540 nm.
